Experimental data from patent publication US9850281B2, “Cladosporium peptides” (Circassia Limited, priority 2012, dated 2017).
Where no end group is shown, it is not given here. [ ]: non-standard residue; d: D form. Nle = CCCC[C@H](N)C(=O)O

How the values were obtained:
[1] = tested on: Peripheral blood mononuclear cells (PBMCs); assay: Cytokine release assay (multiplex bead assay IL-10, IL-13, IFN-g) on PBMCs of mould allergic subjects; format: cell-based, human; conditions: 50 mould allergic subjects; for % responders: cytokine release greater than 50 pg/ml in one or more of IL-13, IL-10 and IFN-g, polypeptide 100 μg/ml, 5 days; for cytokine response in the population (in words): summary of Tables 8-10
Method: Polypeptides for use in this assay were manufactured at small scale (approximately 10 mg batch size, non-GMP). […] Polypeptides were added to wells in a volume of 100 μl containing polypeptides at a concentration of 200 μg/ml, such that subsequent addition of 100 μl of cells would create a final assay concentration of 100 μg/ml.
Peripheral blood mononuclear cells (PBMCs) were isolated from heparinised blood by Ficoll density gradient centrifugation. A 100 μl aliquot of a 5×10^6 cell/ml PBMC suspension was then added to each well and the plates placed in a humidified 5% CO2 incubator at 37° C. for 5 days. Following stimulation, culture supernatants (100 μl) were harvested for testing by multiplex bead assay.
Multiplex cytokine bead assays (IL-10, IL-13, Interferon gamma (IFN-g)) were performed on thawed culture supernatants according to the manufacturer's instructions. Single measurements were performed for each culture supernatant sample. After completion of the multiplex assay, individual cytokine levels were determined by interpolation from the standard curve generated in the assay. A positive result was taken as a cytokine release of greater than 50 pg/ml in one or more of the IL-13, IL-10 and IFN-g assays. The number of responders out of 50 mould allergic subjects tested was calculated for each polypeptide for the three cytokines.

[2] = tested on: Peripheral blood mononuclear cells (PBMCs); assay: as above; format: cell-based, human; conditions: 50 mould allergic subjects, polypeptide 100 μg/ml, 5 days

Substance	% responders [1]	cytokine response in the population (in words) [1]	% responders (IFN-g release greater than 100 pg/ml) [2]
NEWRDFARVNSISP [Alt23]	40%		
WSWKIGPAIATGNT [Alt28]	52%	top performing	
KLWHS-Nle-IP-Nle-GRDAK (KLWHS[Nle]IP[Nle]GRDAK) [Alt24A]	40%		
KLWHSMIP-Nle-GRDAK (KLWHSMIP[Nle]GRDAK) [Alt24C]	36%		
VAITYASRAQGAEK [Cla25A]	44%	showed responses in the population	22%
GWGV-Nle-VSHRSGET (GWGV[Nle]VSHRSGET) [Alt14A]	56%	top performing	
GYTGKIKIAMDVASSE [Alt15]	56%	top performing	
KLWHSMIPMGRDAK [Alt24]	34%		
GGYKAAVRPT-Nle-LE (GGYKAAVRPT[Nle]LE) [Cla35A]	48%	increased response compared to the polypeptide having the sequence of Cla35	
ANYTQTKTVSIRL [Cla29]	48%	showed responses in the population	28%
AEVYQKLKSLTKK [Cla16]	36%	showed responses in the population	16%
GWGVMVSHRSGET [Alt14]	44%	top performing	
AEVYQKLKALAKKTYGQ [Alt13A]	86%	top performing	
GLHFRERKTGSLVIT [Alt21]	38%		
GHHFKERGTGSLVIT [Cla26]	44%	showed responses in the population	28%
LAITYNSRAEGAEK [Alt20]	38%		
GGYKAAVRPTMLE [Cla35]	34%	showed responses in the population	28%
GYTGKIKIA-Nle-DVASSE (GYTGKIKIA[Nle]DVASSE) [Alt15A]	42%	top performing	
